The values that follow come from US20140274688A1, “MOLECULES HAVING CERTAIN PESTICIDAL UTILITIES, AND INTERMEDIATES, COMPOSITIONS, AND PROCESSES RELATED THERETO” (DOW AGROSCIENCES LLC, priority 2013, published 2014).

The test system of data set [1] is Cabbage Looper (Trichoplusia ni) ("CL"). Nature of the data set: Bioassay on Cabbage Looper (CL), 128-well diet tray assay, percent mortality. The note with it: for pest or weed control at 50 µg/cm2: Trichoplusia ni, read-out: CL; for CL rating (percent mortality class): Cabbage Looper, 128-well diet tray assay. The class given is in vivo. The source says:
(§1) Bioassays on Beet Armyworm (Spodoptera exigua) (“BAW”) and Cabbage Looper (Trichoplusia ni) (“CL”)
(§2) BAW has few effective parasites, diseases, or predators to lower its population. BAW infests many weeds, trees, grasses, legumes, and field crops. In various places, it is of economic concern upon asparagus, cotton, corn, soybeans, tobacco, alfalfa, sugar beets, peppers, tomatoes, potatoes, onions, peas, sunflowers, and citrus, among other plants. The Cabbage Looper is a member of the moth family Noctuidae. It is found throughout the world. It is attacks cabbage, cauliflower, broccoli, Brussel sprouts, tomatoes, cucumbers, potatoes, kale, turnips, mustard, peppers, eggplant, watermelons, melons, squash, cantaloupe, peas, beans, collards, lettuce, spinach, celery, parsley, beets, peas, alfalfa, soybeans, and cotton. This species is very destructive to plants due to its voracious consumption of leaves. In the case of cabbage, however, they feed not only on the wrapper leaves, but also may bore into the developing head. The larvae consume three times their weight in plant material daily. The feeding sites are marked by large accumulations of sticky, wet fecal material.
(§3) Consequently, because of the above factors control of these pests is important.
(§4) Certain molecules disclosed in this document were tested against BAW and CEW using procedures described in the following examples. In the reporting of the results, the “BAW & CL Rating Table” was used (See Table Section).
Bioassays on Cabbage Looper in CL
(§5) Trays were covered with a clear self-adhesive cover and held at 25° C., 14:10 light-dark for five to seven days. Percent mortality was recorded for the larvae in each well; activity in the eight wells was then averaged. The results are indicated in the table entitled “Table ABC: Biological Results” (See Table Section).

Data set [2] concerns Beet Armyworm (Spodoptera exigua) ("BAW"). Nature of the data set: Bioassay on Beet Armyworm (BAW), 128-well diet tray assay, percent mortality. The data set is classed as in vivo. The note with it: for pest or weed control at 50 µg/cm2: Spodoptera exigua, read-out: BAW; for BAW rating (percent mortality class): Beet Armyworm, 128-well diet tray assay.
Excerpt: as §1, §2, §3, §4, §5

With `CCc1ccccc1N1C(=O)CS/C1=N\C(=O)NCCCc1cccc(-c2ncn(-c3ccc(OC(F)(F)F)cc3)n2)c1` [P119, (Z)-1-(3-(2-ethylphenyl)-4-oxothiazolidin-2-ylidene)-3-(3-(3-(1-(4-(trifluoromethoxy)phenyl)-1H-1,2,4-triazol-3-yl)phenyl)propyl)urea], the pest or weed control at 50 µg/cm2 in data set [1] and in data set [2] was 50 to 100% each time.
As to `CC(C)c1cc(F)ccc1N1C(=O)CS/C1=N\C(=O)NCCc1cccc(-c2ncn(-c3ccc(OC(F)(F)F)cc3)n2)c1` [P85, (Z)-1-(3-(4-fluoro-2-isopropylphenyl)-4-oxothiazolidin-2-ylidene)-3-(3-(1-(4-(trifluoromethoxy)phenyl)-1H-1,2,4-triazol-3-yl)phenethyl)urea], the pest or weed control at 50 µg/cm2 in data set [1] and in data set [2] was 50 to 100% in each case.
On to `Cc1ccc(C(C)C)c(N2C(=O)CS/C2=N\C(=O)NCCCc2cccc(-c3ncn(-c4ccc(OC(F)(F)F)cc4)n3)c2)c1` [P124, (Z)-1-(3-(2-isopropyl-5-methylphenyl)-4-oxothiazolidin-2-ylidene)-3-(3-(3-(1-(4-(trifluoromethoxy)phenyl)-1H-1,2,4-triazol-3-yl)phenyl)propyl)urea], for which the pest or weed control at 50 µg/cm2 in data set [1] and in data set [2] was 50 to 100% throughout.
For the compound `Cc1ccc(C(C)C)c(N2CCCS/C2=N\C(=O)NCCc2ccc(-c3ncn(-c4ccc(OC(F)(F)F)cc4)n3)cc2)c1` [P59, (Z)-1-(3-(2-isopropyl-5-methylphenyl)-1,3-thiazinan-2-ylidene)-3-(4-(1-(4-(trifluoromethoxy)phenyl)-1H-1,2,4-triazol-3-yl)phenethyl)urea], the pest or weed control at 50 µg/cm2 in data set [1] and in data set [2] was 50 to 100% in each case.
Take `CC(Cc1ccc(-c2ncn(-c3ccc(OC(F)(F)F)cc3)n2)cc1)NC(=O)NC(=S)Nc1ccccc1C(C)C` (stereo not drawn) [F4, N-[2-(propan-2-yl)phenyl]-N′-[1-(4-{1-[4-(trifluoromethoxy)phenyl]-1H-1,2,4-triazol-3-yl}phenyl)propan-2-yl]dicarbonimidothioic diamide]: the “CL rating (percent mortality class)” value in data set [1] is given as “A (50-100)”. Also, the “BAW rating (percent mortality class)” value in data set [2] is “A (50-100)”.
In the case of `CC(C)c1ccccc1N1C(=O)CS/C1=N\C(=O)NCc1ccc(-c2ncn(-c3ccc(OC(F)(F)C(F)(F)F)cc3)n2)cc1` [F18, (Z)-1-(3-(2-isopropylphenyl)-4-oxothiazolidin-2-ylidene)-3-(4-(1-(4-(perfluoroethoxy)phenyl)-1H-1,2,4-triazol-3-yl)benzyl)urea], the “CL rating (percent mortality class)” value in data set [1] is “A (50-100)”. Also, in data set [2], the “BAW rating (percent mortality class)” value is on record as “A (50-100)”.
With `CCc1ccc(C)cc1N1C(=O)CS/C1=N\C(=O)NC1CC1c1ccc(-c2ncn(-c3ccc(OC(F)(F)F)cc3)n2)cc1` (stereo not drawn) [F33, (Z)-1-(3-(2-ethyl-5-methylphenyl)-4-oxothiazolidin-2-ylidene)-3-(2-(4-(1-(4-(trifluoromethoxy)phenyl)-1H-1,2,4-triazol-3-yl)phenyl)cyclopropyl)urea], the “CL rating (percent mortality class)” value in data set [1] is listed as “A (50-100)”. Moreover, the “BAW rating (percent mortality class)” value in data set [2] is “A (50-100)”.
Turning to `CCc1ccc(C)cc1NC(=S)NC(=O)NC1CC1c1ccc(-c2ncn(-c3ccc(OC(F)(F)F)cc3)n2)cc1` (stereo not drawn) [F27, N-(2-ethyl-5-methylphenyl)-N′-[2-(4-{1-[4-(trifluoromethoxy)phenyl]-1H-1,2,4-triazol-3-yl}phenyl)cyclopropyl]dicarbonimidothioic diamide], in data set [1], the “CL rating (percent mortality class)” value is “A (50-100)”. The “BAW rating (percent mortality class)” value in data set [2] was “A (50-100)”.
As for `Cc1ccc(N2C(=O)CS/C2=N\C(=O)NCCCc2cccc(-c3ncn(-c4ccc(OC(F)(F)F)cc4)n3)c2)c(C(C)C)c1` [P128, (Z)-1-(3-(2-isopropyl-4-methylphenyl)-4-oxothiazolidin-2-ylidene)-3-(3-(3-(1-(4-(trifluoromethoxy)phenyl)-1H-1,2,4-triazol-3-yl)phenyl)propyl)urea], the pest or weed control at 50 µg/cm2 in data set [1] and in data set [2] was 50 to 100% in each case.
In the case of `CCc1ccccc1N1C(=O)CS/C1=N\C(=O)NCCCCc1cccc(-c2ncn(-c3ccc(OC(F)(F)F)cc3)n2)c1` [P171, (Z)-1-(3-(2-ethylphenyl)-4-oxothiazolidin-2-ylidene)-3-(4-(3-(1-(4-(trifluoromethoxy)phenyl)-1H-1,2,4-triazol-3-yl)phenyl)butyl)urea], the pest or weed control at 50 µg/cm2 in data set [1] and in data set [2] was 50 to 100% throughout.
Regarding `CC(C)c1cc(F)ccc1N1C(=O)CS/C1=N\C(=O)NCCCc1ccc(-c2ncn(-c3ccc(OC(F)(F)F)cc3)n2)cc1` [P103, (Z)-1-(3-(4-fluoro-2-isopropylphenyl)-4-oxothiazolidin-2-ylidene)-3-(3-(4-(1-(4-(trifluoromethoxy)phenyl)-1H-1,2,4-triazol-3-yl)phenyl)propyl)urea], the pest or weed control at 50 µg/cm2 in data set [1] and in data set [2] was 50 to 100% in each case.
As to `CCCc1ccc(C)cc1N1C(=O)CS/C1=N\C(=O)NCCCc1ccc(-c2ncn(-c3ccc(OC(F)(F)F)cc3)n2)cc1` [P99, (Z)-1-(3-(5-methyl-2-propylphenyl)-4-oxothiazolidin-2-ylidene)-3-(3-(4-(1-(4-(trifluoromethoxy)phenyl)-1H-1,2,4-triazol-3-yl)phenyl)propyl)urea], the pest or weed control at 50 µg/cm2 in data set [1] and in data set [2] was 50 to 100% in each case.
`CCc1ccccc1N1C(=O)CS/C1=N\C(=O)NCc1ccc(-c2ncn(-c3ccc(OC(F)(F)F)cc3)n2)cc1` [P2, (Z)-1-(3-(2-ethylphenyl)-4-oxothiazolidin-2-ylidene)-3-(4-(1-(4-(trifluoromethoxy)phenyl)-1H-1,2,4-triazol-3-yl)benzyl)urea]: the pest or weed control at 50 µg/cm2 in data set [1] and in data set [2] was 50 to 100% each time.
As to `CCCc1ccccc1NC(=S)NC(=O)NC1CC1c1ccc(-c2ncn(-c3ccc(OC(F)(F)F)cc3)n2)cc1` (stereo not drawn) [F23], the “CL rating (percent mortality class)” value in data set [1] is “A (50-100)”. For the same compound, the “BAW rating (percent mortality class)” value in data set [2] is “A (50-100)”.
Consider `Cc1cccc(C)c1NC(=S)NC(=O)NC1CC1c1ccc(-c2ncn(-c3ccc(OC(F)(F)F)cc3)n2)cc1` (stereo not drawn) [F25], for which the “CL rating (percent mortality class)” value in data set [1] is reported as “A (50-100)”. In addition, the “BAW rating (percent mortality class)” value in data set [2] is reported as “A (50-100)”.
Regarding `COc1ccc(N2C(=O)CS/C2=N\C(=O)NCCc2cccc(-c3ncn(-c4ccc(OC(F)(F)F)cc4)n3)c2)c(C)c1` [P87, (Z)-1-(3-(4-methoxy-2-methylphenyl)-4-oxothiazolidin-2-ylidene)-3-(3-(1-(4-(trifluoromethoxy)phenyl)-1H-1,2,4-triazol-3-yl)phenethyl)urea], the pest or weed control at 50 µg/cm2 in data set [1] and in data set [2] was 50 to 100% throughout.
On to `CCCc1ccc(C)cc1N1C(=O)CS/C1=N\C(=O)NCCc1cccc(-c2ncn(-c3ccc(OC(F)(F)F)cc3)n2)c1` [P80, (Z)-1-(3-(5-methyl-2-propylphenyl)-4-oxothiazolidin-2-ylidene)-3-(3-(1-(4-(trifluoromethoxy)phenyl)-1H-1,2,4-triazol-3-yl)phenethyl)urea], for which the pest or weed control at 50 µg/cm2 in data set [1] and in data set [2] was 50 to 100% each time.
With `CCc1cccc(C)c1N1C(=O)CS/C1=N\C(=O)NCCCc1cccc(-c2ncn(-c3ccc(OC(F)(F)F)cc3)n2)c1` [P127, (Z)-1-(3-(2-ethyl-6-methylphenyl)-4-oxothiazolidin-2-ylidene)-3-(3-(3-(1-(4-(trifluoromethoxy)phenyl)-1H-1,2,4-triazol-3-yl)phenyl)propyl)urea], the pest or weed control at 50 µg/cm2 in data set [1] and in data set [2] was 50 to 100% throughout.
For the compound `Cc1ccccc1N1C(=O)CS/C1=N\C(=O)NCc1ccc(-c2ncn(-c3ccc(OC(F)(F)F)cc3)n2)cc1` [P1, (Z)-1-(4-oxo-3-(o-tolyl)thiazolidin-2-ylidene)-3-(4-(1-(4-(trifluoromethoxy)phenyl)-1H-1,2,4-triazol-3-yl)benzyl)urea], the pest or weed control at 50 µg/cm2 in data set [1] and in data set [2] was 50 to 100% throughout.
`CCc1ccc(C)cc1N1C(=O)CS/C1=N\C(=O)NCc1ccc(-c2ncn(-c3ccc(OC(F)(F)F)cc3)n2)cc1` [P7, (Z)-1-(3-(2-ethyl-5-methylphenyl)-4-oxothiazolidin-2-ylidene)-3-(4-(1-(4-(trifluoromethoxy)phenyl)-1H-1,2,4-triazol-3-yl)benzyl)urea]: the pest or weed control at 50 µg/cm2 in data set [1] and in data set [2] was 50 to 100% throughout.
With `Cc1ccc(C(C)C)c(N2C(=O)CS/C2=N\C(=O)NCCCCc2ccc(-c3ncn(-c4ccc(OC(F)(F)F)cc4)n3)cc2)c1` [P150, (Z)-1-(3-(2-isopropyl-5-methylphenyl)-4-oxothiazolidin-2-ylidene)-3-(4-(4-(1-(4-(trifluoromethoxy)phenyl)-1H-1,2,4-triazol-3-yl)phenyl)butyl)urea], the pest or weed control at 50 µg/cm2 in data set [1] and in data set [2] was 50 to 100% throughout.
